Here are results for two compounds from patent US10774065B2, “1-pyridazin-/triazin-3-yl-piper(-azine)/idine/pyrolidine derivatives and compositions thereof for inhibiting the activity of SHP2” (NOVARTIS AG, priority 2014, dated 2020).

The IC50 is the concentration needed to halve the response being measured.

This test has as its target SHP2 (Homo sapiens (Human), UniProt Q06124). Briefly: SHP2 Allosteric Inhibition Assay (DiFMUP prompt fluorescence). It is filed as biochemical. The conditions noted are these: 0.5 nM SHP2 activated with 0.5 μM peptide IRS1_pY1172(dPEG8)pY1222; substrate DiFMUP; 25° C.

Chain of SHP2 (Q06124 whole entry): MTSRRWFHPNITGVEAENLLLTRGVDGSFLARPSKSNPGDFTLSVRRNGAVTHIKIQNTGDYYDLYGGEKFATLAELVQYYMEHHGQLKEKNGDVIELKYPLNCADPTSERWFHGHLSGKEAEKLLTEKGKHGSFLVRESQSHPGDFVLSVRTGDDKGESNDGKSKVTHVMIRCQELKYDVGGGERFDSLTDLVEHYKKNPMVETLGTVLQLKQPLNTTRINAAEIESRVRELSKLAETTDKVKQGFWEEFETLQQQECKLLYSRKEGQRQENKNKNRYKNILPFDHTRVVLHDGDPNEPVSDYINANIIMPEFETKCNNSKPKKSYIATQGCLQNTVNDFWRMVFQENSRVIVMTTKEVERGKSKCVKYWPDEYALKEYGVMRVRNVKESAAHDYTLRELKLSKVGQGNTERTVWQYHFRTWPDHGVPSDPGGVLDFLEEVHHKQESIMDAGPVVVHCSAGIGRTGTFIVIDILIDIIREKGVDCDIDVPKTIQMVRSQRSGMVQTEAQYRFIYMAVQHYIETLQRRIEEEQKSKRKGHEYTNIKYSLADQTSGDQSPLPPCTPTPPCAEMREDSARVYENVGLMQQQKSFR

With `C[C@]1(CN)CCN(c2cnc(-c3cccc(Cl)c3Cl)c(N)n2)C[C@H]1O` (single isomer, unassigned) [11 P1], the IC50 is 0.038 µM.
The compound `C[C@]1(CN)CCN(c2cnc(-c3cccc(Cl)c3Cl)c(N)n2)C[C@H]1O` (single isomer, unassigned) [11 P2] came in with an IC50 of 0.164 µM.
